Assay results published in patent US8822182B2, “Chimeric antigen-specific T cell-activating polypeptides” (Mayo Foundation for Medical Education and Research, priority 2001, dated 2014).
Read-outs that look alike come from different tables or passages of the source.

Assays:
[1] = tested on: TAP-deficient T2 target cells; experiment: 51Cr release cytotoxicity assay, human CEA-specific CTL line, T2 targets; type: cell-based; conditions: for ability to sensitize target cells for CTL lysis: TAP-deficient targets, incubated overnight with peptide, FIG. 1B; for sensitizing activity after pre-incubation with trypsin: trypsin at 37° C., E:T 20:1, FIG. 2B; for capacity to sensitize targets for CTL lysis: 10 μM overnight, E:T 20:1, FIG. 2C; for effect of brefeldin-A (BFA) on sensitization of T2 cells: BFA 1 μg/ml, CEA-specific CTL, E:T 20:1, FIG. 4
[2] = tested on: TAP-expressing 221.A2 target cells; experiment: 51Cr release cytotoxicity assay, human CEA-specific CTL line, 221.A2 targets; type: cell-based; conditions: TAP-competent targets, incubated overnight with peptide, FIG. 1A
C57BL/6 mice = type: in vivo, mouse; conditions: 50 μg in IFA; spleen and lymph node cells cultured with IL-2 for 7 days, FIG. 12
[3] = tested on: TAP-deficient cells (T2/K^b); experiment: Immunofluorescence and confocal microscopy of H-2K^b/OVA257 complexes, T2/K^b cells; type: cell-based, human
Experimental: (§1) T2/K^b or L-K^b cells were cultured overnight on poly-lysine treated glass coverslips. The culture medium was discarded, and the cells were gently washed with PBS. The cells were pre-incubated with serum-free AIM-V medium at 37° C. for 30 minutes and then incubated with peptide/TA solutions at the indicated concentrations for 12 hour at 37° C. After peptide loading, the cells were washed and fixed with 2% formaldehyde for 20 minutes at room temperature. For indirect immunofluorescence, fixed cell monolayers were permeabilized with 0.2% Triton X100 in PBS and incubated with PBS containing 5% goat serum to block non-specific protein binding sites. The cells were double-labeled with mouse monoclonal antibody 25D1.16 specific to OVA257/H-2K^b complex and rabbit polyclonal antibody TGN38 (TGN marker) or rabbit anti-calreticulin (ER marker), followed by 1 hour staining with FITC anti-mIgG and TR anti-rIgG as secondary antibodies. After washing, the coverslips were mounted for observation on glass slides using the Prolong Antifade Kit. The stained cells were examined and photographed with a Leica TCS-SL confocal laser-scanning microscope (Bensheim, Germany).
An antibody specific for trans-Golgi network (TGN38) was used to test whether H-2K^b/OVA257 complexes could also be detected in the trans-Golgi network of cells incubated with TA peptides. […] In these cells, antibody TGN38 stained brightly a structure corresponding to the trans-Golgi. […] These observations reinforce the findings that TA peptides need to penetrate cells in order to create MHC class I/peptide complexes. In addition, these complexes are observed in both the ER and trans-Golgi, even in TAP-deficient cells.

[4] = tested on: TAP-deficient T2/K^b cells; experiment: Flow cytometry of surface H-2K^b/OVA257 complexes (25D1.16) with protease inhibitors, T2/K^b cells; type: cell-based, human; conditions: antigen 10 μM overnight; for effect of furin inhibitor decRVKR-CMK on expression of surface H-2K^b/OVA257 complexes (decrease): decRVKR-CMK 60 μM, FIGS. 8D-8F; for effect of lactacystin on level of surface H-2K^b/OVA257 complexes (increase): lactacystin 10 μM, FIGS. 6C and 6D; for effect of pepstatin-A on amounts of surface peptide/MHC class I complexes (increase): pepstatin 100 μM, FIGS. 7C and 7D
Experimental: (§2) The effects of protease inhibitors on antigen processing and presentation were evaluated by analysis of 25D1.16 staining on different antigen-pulsed EL-4 or T2/K^b cells using flow cytometric analysis. In brief, EL-4 or T2/K^b cells were washed twice with serum-free AIM-V medium (Life Technologies, Rockville, Md.), pre-treated with protease inhibitors (10 μM lactacycstin, 100 μM pepstatin or 60 μM decRVKR-CMK) for 30 minutes and then pulsed with equimolar concentrations of different (as indicated) peptides at 37° C. overnight with the continuous presence of the corresponding protease inhibitors. The serum-free AIM-V medium was used in order to exclude the potential involvement of serum proteases during the peptide-pulsing process. After washing the cells twice with FACS buffer (PBS (phosphate buffered saline) supplemented with 2% FBS and 0.2% sodium azide), peptide-loaded APC were stained with 25D1.16 antibody followed by FITC anti-mIgG for flow analysis. Untreated EL-4 and T2/K^b cells were pulsed with peptides and stained as controls.
The data described above indicate that TA can be processed in various cellular compartments to produce small peptide epitopes that subsequently associate with MHC class I molecules and the resulting peptide-MHC class I complexes are then transported to the cell surface. Antigen processing could take place: (1) in the cytoplasm, via proteasomal degradation followed by TAP transport; (2) within the ER, where peptide trimming via an aminopeptidase could occur; (3) in the trans-Golgi, where processing of antigens through proteases such as furin can occur; and/or (4) in early endocytic compartments, where peptides that could either bind to recycling MHC class I molecules or leak into other compartments of the MHC class I pathway can be generated. Utilizing antibody 25D1.16, we studied the effects of various inhibitors of antigen processing in the formation of H-2K^b/OVA257 surface complexes by peptides OVA257-HIVtat and HIVtat-OVA257.

TAP-competent EL-4 cells = experiment: Flow cytometry of surface H-2K^b/OVA257 complexes (25D1.16) with protease inhibitors, EL-4 cells; type: cell-based, mouse; conditions: antigen 10 μM overnight; for effect of furin inhibitor decRVKR-CMK on expression of surface H-2K^b/OVA257 complexes (decrease): decRVKR-CMK 60 μM, FIGS. 8A-8C; for effect of lactacystin on amount of surface H-2K^b/OVA257 complexes: lactacystin 10 μM, FIGS. 6A and 6B; for effect of pepstatin-A on amounts of surface peptide/MHC class I complexes (increase): pepstatin 100 μM, FIGS. 7A and 7B
Experimental: as §2

[5] = tested on: TAP-deficient RMA-S target cells; type: cell-based, mouse; conditions: peptide epitope-activated CTL; for sensitization of targets for lysis by LCMV-specific CTL: FIG. 10C (right panel)
[6] = tested on: TAP deficient RMA-S targets; type: cell-based, mouse; conditions: ConA-activated CTL, 10 μM overnight; for sensitization of targets for killing by OVA257-specific CTL: FIG. 9 left panel; for sensitization of targets for killing by 2C-specific CTL: FIG. 9 middle panel
[7] = tested on: TAP-deficient T2 target cells; type: cell-based, human
[8] = tested on: Murine dendritic cells (DC); experiment: Persistence in dendritic cells: IFN-γ ELISA of OT-1 CTL cultured with pulsed DC; type: cell-based, mouse; conditions: DC pulsed 10 μM 2 hours, washed, further 48 hours, CTL:DC 10:1 for 24 hours, FIG. 14
Experimental: Murine dendritic cells (DC) were prepared by culturing C57BL6 mouse (H-2^b) bone marrow […] in the presence of granulocyte macrophage colony stimulating factor (GM-CSF) and interleukin-4 (IL-4) by a method essentially the same as that described by Son et al. [(2002) J. Immunol. Meth. 262:145-157] except that non-adherent cells are removed from the cultures and discarded on day 2 of culture and no density gradient centrifugation step was used. Cells not adhering to the plastic tissue culture vessel at day 6 of culture were harvested and used as DC.
DC were pulsed with either the TA HIVtat-OVA257 (see Table 2) or the peptide epitope OVA257, each at a concentration of 10 μM, for 2 hours at 37° C. The cells were then washed free of the TA or peptide epitope and incubated for a further 48 hours. They were then cultured with cells of the OT-1 CTL clone (specific for H-2K^b/OVA257) at a CTL to DC ratio of 10:1 for 24 hours. Supernatants were then removed from the cultures and the relative amounts of IFN-γ in various dilutions of each supernatant were measured by ELISA (FIG. 14). […] These findings indicate that a peptide epitope persists in DC for a longer period of time when taken up by DC in the form of a TA than when taken up by DC in the form of the peptide epitope per se.

[9] = tested on: TAP-competent cells expressing H-2K^b (L-K^b); experiment: Immunofluorescence and confocal microscopy of H-2K^b/OVA257 complexes, TAP-competent cells; type: cell-based, mouse
Experimental: as §1
Utilizing the monoclonal antibody 25D1.16 that specifically reacts with H-2K^b/OVA257 complexes and confocal microscopy, the formation and presence of this CTL epitope in permeabilized TAP-competent and TAP-deficient cells expressing H-2K^b was evaluated. […] These cells were also stained with an antibody specific for calreticulin which is localized within the ER.

[10] = tested on: TAP-expressing 221.A2 target cells; type: cell-based, human

IMIGVLVGVAAARKKRRQRRR [CEA691-HIVtat]
ability to sensitize target cells for CTL lysis [1]: similar, if not identical, activities | sensitizing activity after pre-incubation with trypsin ([1]; antigen 1 μM): lost most of its activity | ability to sensitize target cells for CTL lysis [2]: similar, if not identical, activities

IMIGVLVGVRRR [CEA691-RRR]
capacity to sensitize targets for CTL lysis [1]: none of peptides CEA691-KKK, CEA691-RRR or CEA691-RKK were able to sensitize

IMIGVLVGVRKK [CEA691-RKK]
capacity to sensitize targets for CTL lysis [1]: none of peptides CEA691-KKK, CEA691-RRR or CEA691-RKK were able to sensitize

RKKRRQRRRAAASVYDEFFVWLVRVVLPYLGWLVFVRVVSGPSNTPPEI [TAG]
peptide epitope-specific cytotoxic activity of effector cells from immunized mice (E1A, P1A, TRP-2 pulsed versus unpulsed RMA-S targets) (C57BL/6 mice): no significant cytotoxic activity

SIINFEKLAAARKKRRQRRR [OVA257-HIVtat]
amount of intracellular H-2K^b/OVA257 complexes ([3]; 25D1.16 staining): High amounts of intracellular H-2K^b/OVA257 complexes | localization of H-2K^b/OVA257 complexes to the trans-Golgi ([3]; 25D1.16 superimposed with TGN38 staining): majority of the H-2K^b/OVA257 complexes localized within the trans-Golgi | effect of furin inhibitor decRVKR-CMK on expression of surface H-2K^b/OVA257 complexes (decrease) [4]: about 10 fold | effect of lactacystin on level of surface H-2K^b/OVA257 complexes (increase) [4]: about 3 fold | effect of pepstatin-A on amounts of surface peptide/MHC class I complexes (increase) [4]: 3-5 fold | effect of furin inhibitor decRVKR-CMK on expression of surface H-2K^b/OVA257 complexes (decrease) (TAP-competent EL-4 cells): about 10 fold | effect of lactacystin on amount of surface H-2K^b/OVA257 complexes (TAP-competent EL-4 cells): did not have an effect | effect of pepstatin-A on amounts of surface peptide/MHC class I complexes (increase) (TAP-competent EL-4 cells): 3-5 fold

IKAVYNFATCGVRVVSIYRYYGLVRVVSIINFEKLAAARKKRRQRRR [TA3-C]
effectiveness in sensitizing RMA-S targets relative to TA3-A (less effective) ([5]; E:T 10:1, FIG. 10): at least 100 fold | sensitization of targets for lysis by CTL specific for all three peptide epitopes (OVA257, 2C, LCMV) ([5]; E:T 10:1, FIG. 10): also sensitized the RMA-S targets for lysis | sensitization of targets for killing by OVA257-specific CTL [6]: much less effective | sensitization of targets for killing by 2C-specific CTL [6]: much less effective

SIINFEKLRVKRIKAVYNFATCGRVKRSIYRYYGLAAARKKRRQRRR [TA3-B]
sensitization of targets for killing by OVA257-specific CTL [6]: could effectively kill targets sensitized | sensitization of targets for killing by 2C-specific CTL [6]: could effectively kill targets sensitized

IMDQVPSFV [gp100209, reference compound]
effect of brefeldin-A (BFA) on sensitization of T2 cells [7]: did not block

RKKRRQRRRAAAIMIGVLVGV [HIVtat-CEA691]
effect of brefeldin-A (BFA) on sensitization of T2 cells [1]: effective in blocking

RKKRRQRRRAAASIINFEKL [HIVtat-OVA257]
effect of furin inhibitor decRVKR-CMK on expression of surface H-2K^b/OVA257 complexes (decrease) [4]: no effect was observed | effect of lactacystin on level of surface H-2K^b/OVA257 complexes (increase) [4]: did not have an appreciable effect | effect of pepstatin-A on amounts of surface peptide/MHC class I complexes (increase) [4]: did not have an appreciable effect | effect of furin inhibitor decRVKR-CMK on expression of surface H-2K^b/OVA257 complexes (decrease) (TAP-competent EL-4 cells): no effect was observed | effect of lactacystin on amount of surface H-2K^b/OVA257 complexes (TAP-competent EL-4 cells): did not have an effect | effect of pepstatin-A on amounts of surface peptide/MHC class I complexes (increase) (TAP-competent EL-4 cells): did not have an appreciable effect | IFN-γ produced by OT-1 CTL cultured with pulsed DC [8]: a high level of IFN-γ was produced | presence of H-2K^b/OVA257 complexes in permeabilized cells ([9]; 25D1.16 staining): abundant | H-2K^b/OVA257 complexes within the ER ([9]; 25D1.16 superimposed with calreticulin staining): abundant H-2K^b/OVA257 complexes were present within the ER

IKAVYNFATCG [LCMV, reference compound]
sensitization of targets for lysis by LCMV-specific CTL [5]: relatively high amount of the peptide epitope required to sensitize | sensitization of targets for lysis by LCMV-specific CTL ([6]; FIG. 9 right panel): only the short minimal epitope was effective

RKKRRQRRRIKAVYNFATCGRVKRSIINFEKLRVKRSIYRYYGL [TA3-D]
sensitization of targets for lysis by LCMV-specific CTL [5]: less effective | sensitization of targets for lysis by OVA257-specific CTL ([5]; FIG. 10 left panel): as effective as the others | sensitization of targets for lysis by 2C-specific CTL ([5]; FIG. 10 middle panel): as effective as the others

RKKRRQRRRAAASVYDEFFVWLKVKRLPYLGWLVFKVKRSGPSNTPPEI [TA5]
peptide epitope-specific cytotoxic activity of effector cells from immunized mice (E1A, P1A, TRP-2 pulsed versus unpulsed RMA-S targets) (C57BL/6 mice): significant peptide epitope-specific cytotoxic activity was detected

IMIGVLVGV (epitope) [CEA691, reference compound]
effect of brefeldin-A (BFA) on sensitization of T2 cells [1]: did not block | ability to sensitize target cells for CTL lysis [1]: similar, if not identical, activities | effect of competitor peptide HBc18-27 on sensitization of target cells for CTL lysis ([1]; antigen 1 μM, 30 minutes, E:T 20:1, FIG. 2A): efficient at inhibiting the sensitization of target cells for CTL lysis by peptide CEA691 | sensitizing activity after pre-incubation with trypsin ([1]; antigen 1 μM): did not modify this peptide's sensitizing activity | ability to sensitize target cells for CTL lysis [2]: similar, if not identical, activities

IMIGVLVGVKKK [CEA691-KKK]
capacity to sensitize targets for CTL lysis [1]: none of peptides CEA691-KKK, CEA691-RRR or CEA691-RKK were able to sensitize

RQIKIWFPNRRMKWKKAEIDLIMDQVPFSVLRTED [AntpHD-gp100209]
effect of brefeldin-A (BFA) on sensitization of T2 cells [7]: effective in blocking | sensitization of targets for lysis by gp100209-specific CTL clone [7]: efficiently sensitized | sensitization of targets for lysis by gp100209-specific CTL clone [10]: efficiently sensitized
